Assay results reported in patent US20070077283A1, “METHOD OF ENHANCING TRANSMUCOSAL DELIVERY OF THERAPEUTIC COMPOUNDS” (Nastech Pharmaceutical Company Inc., priority 2005, published 2007).
One block for each molecule: values may come before it.

Assays:
[1] = test system: human-derived tracheal/bronchial epithelial cells (EpiAirway Tissue Model); assay: Cell viability (MTT assay); assay type: cell-based; conditions: compared with PBS negative control (Example 5)
Method: Cell viability will be assessed using the MTT assay (MTT-100, MatTek kit). This kit measures the uptake and transformation of tetrazolium salt to formazan dye. Thawed and diluted MTT concentrate is prepared 1 hour prior to the end of the dosing period with the lipid by mixing 2 mL of MTT concentrate with 8 mL of MTT diluent. Each cell culture insert is washed twice with PBS containing Ca^+2 and Mg^+2 and then transferred to a new 96-well transport plate containing 100 μL of the mixed MTT solution per well. This 96-well transport plate is then incubated for three hours at 37° C. and 5% CO2. After the three hour incubation, the MTT solution is removed and the cultures are transferred to a second 96-well feeder tray containing 250 μL MTT extractant solution per well. An additional 150 μL of MTT extractan solution was added to the surface of each culture well and the samples sat at room temperature in the dark for a minimum of two hours and maximum of 24 hours. The insert membrane was then pierced with a pipet tip and the solutions in the upper and lower wells were allowed to mix. Two hundred microliters of the mixed extracted solution along with extracted blanks (negative control) was transferred to a 96-well plate for measurement with a microplate reader. The optical density (OD) of the samples was measured at 570 nm with the background subtraction at 650 nm on a plate reader. Cell viability was expressed as a percentage and calculated by dividing the OD readings for treated inserts by the OD readings for the PBS treated inserts and multiplying by 100. For the purposes of this assay, it was assumed that PBS had no effect on cell viability and therefore represented 100% cell viability.

[2] = test system: human-derived tracheal/bronchial epithelial cells (EpiAirway Tissue Model); assay: FITC-Dextran permeation assay across epithelial cell monolayer; assay type: cell-based; conditions: for Mean % FD3 Permeation: FITC-dextran 3000 (Table 4); for permeation of FD3 relative to negative controls: text summary of Table 4
Method: Each tissue insert was placed in an individual well containing 1 ml of MatTek basal media. On the apical surface of the inserts, 20 μl of test formulation was applied according to study design, and the samples were placed on a shaker (˜100 rpm) for 1.5 hours at 37° C. FITC-labeled dextran solution was added to inserts apically and a fluorescence measurement was taken from the basolateral media after the incubation period. Two hundred microliters of the basal media for each test formulation was transferred to a dark-wall fluorescent reading plate. Each test formulation was tested in triplicate. Fluorescent intensity was measured at 470 nM with the microplate fluorescence reader FLx800 (Bio-Tek Instruments, Inc., Winooski, Vt.). A FITC labeled dextran with a molecular weight of 3 kDA, 10 kDA, 20 kDA, 40 kDA, 70 kDA and/or 500 kDA was used to assess the ability of individual lipids to deliver a model protein across an epithelia.
Permeation is expressed as percent permeation and was calculated as follows: [formula] [formula] Terms
PBS and 0.3% Triton-X100™ served as […]. […] FD permeation was presented as the percent of FD that crossed from the apical side of the epithelial cell monolayer to the basolateral cell surface.

[3] = test system: human-derived tracheal/bronchial epithelial cells (EpiAirway Tissue Model); assay: Transepithelial electrical resistance (TER) of an epithelial cell monolayer; assay type: cell-based; conditions: for activity at 1000 µM: Homo sapiens, Epithelial cell, 1 h, read-out: Mean % of Original TER Value
Method: Inserts are feed for each day of recovery. TER measurements were accomplished using the Endohm-12 Tissue Resistance Measurement Chamber connected to the EVOM Epithelial Voltohmmeter (World Precision Instruments, Sarasota, Fla.) with the electrode leads. The electrodes and a tissue culture blank insert were equilibrated for at least 20 minutes in MatTek medium with the power off prior to checking calibration. The background resistance was measured with 1.5 ml media in the Endohm tissue chamber and 300 μl media in the blank insert. The top electrode was adjusted so that it was close to, but not making contact with, the top surface of the insert membrane. Background resistance of the blank insert was about 5-20 ohms. […] TER values are a function of the surface area of the tissue. […] By this method of calculation, TER will be expressed as both Ohms*cm2 and percent original TER value. […] Several different lipid types (see Table 1) were screened to select for lipids that are capable of enhancing the permeation of a biological agent across an epithelial cell monolayer. […] A reduction in TER correlates with the ability to enhance the permeation of a molecule and biological agent across an epithelia.

[4] = test system: human-derived tracheal/bronchial epithelial cells (EpiAirway Tissue Model); assay: in vitro
Method: Normal, human-derived tracheal/bronchial epithelial cells will serve as the model cell system for assessing the lipids listed in Table 1. The cells are supplied by MatTek Corp. (Ashland, Mass.) as the EpiAirway™ Tissue Model. The cells are provided as a confluent monolayer on a Millipore Milicell-CM cell culture insert with a pore size of 0.4 μM, inner diameter of 0.8 cm and surface area of 0.6 cm^2 and comprised of transparent hydrophilic Teflon (PTFE). Upon receipt, the membranes are cultured in 1 ml basal media (phenol red-free and hydrocortisone-free Dulbecco's Modified Eagle's Media (DMEM) at 37° C./5% CO2 for 24-48 hours before use. Inserts are feed for each day of recovery.
The amount of cell death was assayed by measuring the loss of lactate dehydrogenase (LDH) from the cells using a CytoTox 96 Cytotoxicity Assay Kit (Promega Corp., Madison, Wis.). A treatment of 1% Octylphenolpoly(ethyleneglycolether)x (Triton X-100™) diluted in PBS was used as a lysis control. One percent Triton X-100™ mediated cell lysis was normalized to 100%. For basal-lateral LDH levels, triplicates of 50 μl of the basal media were loaded into a 96-well assay plate. For apical LDH levels, 150 μl of Epi-Cm was added to the apical side of each chamber and mixed by pipeting. One hundred and fifty microliters was then removed and diluted 2-fold prior to performing the LDH assay. All apical LDH assay were performed in triplicate and with 50 μl of the diluted test solution. Fresh, cell-free culture medium will be used as a blank. Total LDH levels were determined by lysing cells in a final concentration of 0.9% Triton-X100™. Fifty microliters of substrate solution was added to each well and the plates incubated for 30 minutes at room temperature in the dark. Following incubation, 50 μl of stop solution was added to each well and the plates read on an optical density plate reader at […]. Cytotoxicity was expressed as a percentage calculated by subtracting the average absorbance of the PBS control wells as the endogenously released LDH level and expressing that value relative to the average Triton-X100 control, which represents total LDH content. [formula] Osmolality
For the instant application, phosphate buffered saline (PBS) served as a negative control for both the TER assay and LDH (cytotoxicity) assay. […] TER measurements and LDH levels were taken immediately after a one hour treatment of the cultured cells with each lipid, unless specified otherwrise.
TER reduction was expressed as the percent decrease in TER value from time zero to one hour post-treatment. Thus, greater percent reduction in TER represents less electrical resistance across the epithelial cell monolayer and consequently greater epithelial cell permeation. Cytotoxicity (LDH levels) for each lipid was expressed as a percent of the LDH levels measured after Triton-X100 treatment of the cells. Triton-X100™ LDH levels were normalized to 100%.

[5] = lipid 1000 μM, percent decrease in TER from time zero
[6] = lipid 1000 μM, lower value = greater TER reduction (Table 4)

- LDH levels ([4]; human, 1 h): below 30%
Structure (SMILES): CCCCCCCCCCCCCCCC(=O)OC[C@H](COP(=O)([O-])OCC[N+](C)(C)C)OC(=O)CCCCCCCC=O [16:0-09:0(ALDO)PC, 1-Palmitoyl-2-(9′-oxo-Nonanoyl)-sn-Glycero-3-Phosphocholine]
- MTT levels (cell viability) [1]: MTT levels comparable to that of the PBS negative control
- % FITC-Dextran Permeation FD3 ([2]; lipid 1000 μM (Table 5)): 0%
- Mean TER Reduction 1 hr. Post-treatment [3, 5]: 81%
- Cytotoxic Effect (LDH) 1 hr. Post-treatments ([4]; human, 1 h, 1000 μM): 10%

- LDH levels ([4]; human, 1 h): below 30%
Structure (SMILES): CCCCCCCCCCCCCCCC(=O)OC[C@H](COP(=O)([O-])OCC[N+](C)(C)C)OC(=O)CCCCCCCC(=O)O [16:0-09:0(COOH)PC, 1-Palmitoyl-2-Azelaoyl-sn-Glycero-3-Phosphocholine]
- MTT levels (cell viability) [1]: MTT levels comparable to that of the PBS negative control
- % FITC-Dextran Permeation FD3 ([2]; lipid 500 μM (Table 5)): 3%
- Mean TER Reduction 1 hr. Post-treatment ([3]; lipid 500 μM): 92%
- Cytotoxic Effect (LDH) 1 hr. Post-treatments ([4]; human, 1 h, 500 μM): 9%

Structure (SMILES): CCCCCCCCCCCCCCCCCCOC[C@H](COP(=O)([O-])OCC[N+](C)(C)C)OC [18:0-1:0 Diether PC, 1-O-Octadecyl-2-O-Methyl-sn-Glycero-3-Phosphocholine]
- MTT levels (cell viability) [1]: MTT levels comparable to that of the PBS negative control
- % FITC-Dextran Permeation FD3 ([2]; lipid 500 μM (Table 5)): 5%
- Mean % FD3 Permeation ([2]; lipid 1000 μM): 0%
- activity at 1000 µM [3, 6]: 111%
- Mean TER Reduction 1 hr. Post-treatment ([3]; lipid 500 μM): 89%
- Mean TER Reduction 1 hr. Post-treatment [3, 5]: 99%
- Cytotoxic Effect (LDH) 1 hr. Post-treatments ([4]; human, 1 h, 500 μM): 26%
- Cytotoxic Effect (LDH) 1 hr. Post-treatments ([4]; human, 1 h, 1000 μM): 50%
- Mean % Relative Cytotoxic Effect (LDH) ([4]; human, 1 h, 1000 μM): −1%

- LDH levels ([4]; human, 1 h): below 30%
Structure (SMILES): CCCCCCCCCCCCCCCCOC[C@H](COP(=O)([O-])OCC[N+](C)(C)C)OC(=O)CCCCCCCC(=O)O [Azelaoyl PAF (C16-09:0), 1-O-Hexadecyl-2-Azelaoyl-sn-Glycero-3-Phosphocholine]
- MTT levels (cell viability) [1]: MTT levels comparable to that of the PBS negative control
- % FITC-Dextran Permeation FD3 ([2]; lipid 250 μM (Table 5)): 1%
- Mean % FD3 Permeation ([2]; lipid 1000 μM): 9%
- permeation of FD3 relative to negative controls [2]: enhanced the permeation of FD3 above that of the negative controls
- activity at 1000 µM [3, 6]: -5%
- Mean TER Reduction 1 hr. Post-treatment ([3]; lipid 62.5 μM): 41%
- Mean TER Reduction 1 hr. Post-treatment ([3]; lipid 125 μM): 76%
- Mean TER Reduction 1 hr. Post-treatment ([3]; lipid 250 μM): 93%
- Mean TER Reduction 1 hr. Post-treatment ([3]; lipid 500 μM): 93%
- Mean TER Reduction 1 hr. Post-treatment [3, 5]: 95%
- Cytotoxic Effect (LDH) 1 hr. Post-treatments ([4]; human, 1 h, 62.5 μM): 2%
- Cytotoxic Effect (LDH) 1 hr. Post-treatments ([4]; human, 1 h, 125 μM): 5%
- Cytotoxic Effect (LDH) 1 hr. Post-treatments ([4]; human, 1 h, 250 μM): 10%
- Cytotoxic Effect (LDH) 1 hr. Post-treatments ([4]; human, 1 h, 500 μM): 16%
- Cytotoxic Effect (LDH) 1 hr. Post-treatments ([4]; human, 1 h, 1000 μM): 26%
- Mean % Relative Cytotoxic Effect (LDH) ([4]; human, 1 h, 1000 μM): 3%

Structure (SMILES): CC/C=C\C/C=C\C/C=C\C/C=C\C/C=C\CCCC(=O)O[C@H](COCCCCCCCCCCCCCCCC)COP(=O)([O-])OCC[N+](C)(C)C [C16-20:5 PC, 1-O-Hexadecyl-2-Eicosapentaenoyl-sn-Glycero-3-Phosphocholine]
- Mean % FD3 Permeation ([2]; lipid 1000 μM): 0%
- Mean % of Original TER Value [3, 6]: 90%
- Mean % Relative Cytotoxic Effect (LDH) ([4]; lipid 1000 μM (Table 4)): −1%

Structure (SMILES): CC/C=C\C/C=C\C/C=C\C/C=C\C/C=C\C/C=C\CCC(=O)O[C@H](COCCCCCCCCCCCCCCCC)COP(=O)([O-])OCC[N+](C)(C)C [C16-22:6 PC, 1-O-Hexadecyl-2-Docosahexaenoyl-sn-Glycero-3-Phosphocholine]
- Mean % FD3 Permeation ([2]; lipid 1000 μM): 0%
- Mean % of Original TER Value [3, 6]: 97%
- Mean % Relative Cytotoxic Effect (LDH) ([4]; lipid 1000 μM (Table 4)): −1%

Structure (SMILES): CCCCCCCCCCCCCCCCCCOC[C@H](COP(=O)([O-])OCC[N+](C)(C)C)OC(=O)CCC [C18-04:0 PC, 1-O-Octadecyl-2-Butyroyl-sn-Glycero-3-Phosphocholine]
- Mean % FD3 Permeation ([2]; lipid 1000 μM): 0%
- activity at 1000 µM [3, 6]: 85%
- Mean % Relative Cytotoxic Effect (LDH) ([4]; human, 1 h, 1000 μM): −3%

Structure (SMILES): CCCCCCCCCCCCCCCCOC[C@H](COP(=O)([O-])OCC[N+](C)(C)C)OC(=O)NC [C-PAF, 1-O-Hexadecyl-2-N-Methylcarbamyl-sn-Glycero-3-Phosphocholine]
- Mean % FD3 Permeation ([2]; lipid 500 μM): 11%
- Mean % FD3 Permeation ([2]; lipid 1000 μM): 12%
- permeation of FD3 relative to negative controls [2]: enhanced the permeation of FD3 above that of the negative controls
- Mean % of Original TER Value ([3]; lipid 500 μM (Table 4)): 10%
- Mean % of Original TER Value [3, 6]: 2%
- Mean % Relative Cytotoxic Effect (LDH) ([4]; lipid 500 μM (Table 4)): 11%
- Mean % Relative Cytotoxic Effect (LDH) ([4]; lipid 1000 μM (Table 4)): 15%

Structure (SMILES): CCCCCCCCCCCCC/C=C/[C@@H](O)[C@@H](N)CO[C@@H]1O[C@H](CO)[C@@H](O[C@@H]2O[C@H](CO)[C@H](O)[C@H](O)[C@H]2O)[C@H](O)[C@H]1O [Lactosyl(β) Sphingosine, D-Lactosyl-β1-1′-D-erythro-Sphingosine]
- % FITC-Dextran Permeation FD10 ([2]; lipid 1000 μM): 5%
- % FITC-Dextran Permeation FD40 ([2]; lipid 1000 μM): 2%
- % FITC-Dextran Permeation FD3 ([2]; lipid 1000 μM (Table 5)): 8%
- Mean TER Reduction 1 hr. Post-treatment [3, 5]: 95%
- Cytotoxic Effect (LDH) 1 hr. Post-treatments ([4]; lipid 1000 μM, percent of Triton-X100 LDH levels): 14%
